# Reference: publication PMC11868595, “Safety, pharmacokinetics and efficacy of HA121-28 in patients with advanced solid tumors and RET fusion-positive non-small-cell lung cancer: a multicenter, open-label, single-arm phase 1/2 trial” (Signal Transduction and Targeted Therapy, 2025)
# System: patients with advanced solid tumors
# Test: Phase 1 trial: adverse events (CTCAE), DLT and MTD
# Type: in vivo, human
# Conditions: Phase 1, 800 mg (N=3)
# Procedure: The phase 1 trial was a two-part, multicenter, open-label, nonrandomized study to evaluate the safety and preliminary efficacy of HA121-28.
# Safety, tolerability, and PK of HA121-28 was assessed in dose-escalation part. The single-patient accelerated titration was carried out at 25 mg and 50 mg; then, the dose escalation proceeded according to a “3 + 3” design in dose range of 100 to 800 mg. Escalation to a higher dose level was considered by the satisfactory review of safety results from the previous lower dose during the first cycle.
# The dose-expansion part aims to further access the safety and efficacy of HA121-28 at the selected doses based on data from the dose-escalation part. The RP2D was determined by investigators in view of a thorough review of safety, PK, and efficacy results.
# In phase 1 trial, during the dose-escalation part, patients first administered HA121-28 in a single ascending dose under the fasted state, then followed up for seven days. Then, patients received ascending doses of HA121-28 (q.d.) on a 21-day on and 7-day off treatment scheme for a 28-day cycle. For patients deemed beneficial from the treatment by investigators, treatment could remain until disease progression, or they discontinued from the study. In the dose-expansion part of phase 1, as well as phase 2, patients received HA121-28 (q.d.) at the selected doses on a 21-day on and 7-day off treatment scheme until disease progression, or they discontinued from the study.
# Treatment-emergent adverse events (TEAEs) were documented during the entire study period. The predefined adverse event of special interest (AESI) was ≥ grade 3 prolonged QT interval. Tumor imaging was performed using contrast-enhanced computed tomography or magnetic resonance imaging at screening, Day 28 of the first cycle, then approximately every eight weeks till the end of the study for phase 1; in phase 2, imaging was scheduled at screening, and every eight weeks during the first 40 weeks, followed by every 12 weeks for the rest of the study period. RECIST 1.1 was used by the independent review committee or investigators for assessment of tumor response. After the original assessment, a repeated assessment was required around four weeks later to confirm a complete or partial response.
# The primary endpoints of phase 1 were to investigate the MTD, dose-limiting toxicities, and the incidence and severity of TEAEs. Each TEAE was graded according to the Common Terminology Criteria for Adverse Events (CTCAE, version 5.0) and coded by Medical Dictionary for Regulatory Activities (MedDRA, version 21.0). The secondary endpoints included calculating PK parameters, assessing the ORR and DCR at the recommended dose by investigators as per RECIST 1.1. The exploratory endpoint was PFS.
# If grade 2 or higher toxicity related to the study drug occurs in Groups 1 and 2 (as determined by the investigator), dose escalation will proceed using a 3+3 design starting from that dose level. If no DLT is observed at the 800 mg/d dose level after dose escalation, a meeting of investigators will be convened to decide whether to proceed with further dose escalation based on the available PK data, safety, and tolerability information.
# 5. Definition of DLT and MTD
# The following events related to the study drug (including those that are definitely related, highly likely to be related, and possibly related):
# (1) Grade 4 hematologic toxicity or grade 3 neutropenia accompanied by a fever of 38.5℃ or higher, or grade 3 thrombocytopenia accompanied by severe bleeding.
# (2) Patients who discontinued the medication for more than 7 days due to unresolved toxicity reactions or who discontinued the medication more than twice due to toxicity […]
# (3) In the context of supportive treatment, diarrhea of grade 2 lasting more than 7 days, or grade 3 diarrhea lasting more than 3 days.
smiles,measurement,value
"COc1cc2c(Nc3ccc(Br)cc3F)ncnc2cc1OCCCCN(C)C.Cl.Cl [HA121-28, N-(4-bromo-2-fluorophenyl)-7-(4-(dimethylamino)butoxy)-6-methoxy quinazolin-4-amine dihydrochloride]",Serious TEAE: Headache,0 No. (%)
same,Serious TEAE: Hemoptysis,0 No. (%)
same,Serious TEAE: Hydronephrosis,0 No. (%)
same,Serious TEAE: Hypertension,0 No. (%)
same,Serious TEAE: Hypoalbuminemia,0 No. (%)
same,Serious TEAE: Intestinal obstruction,0 No. (%)
same,Serious TEAE: Intra-abdominal fluid collection,0 No. (%)
same,Serious TEAE: Intracranial tumor hemorrhage,0 No. (%)
same,Serious TEAE: Liver injury,0 No. (%)
same,Serious TEAE: Lung adenocarcinoma,0 No. (%)
same,Serious TEAE: Malignant neoplasm progression,0 No. (%)
same,Serious TEAE: Multiple organ dysfunction syndrome,0 No. (%)
same,Serious TEAE: Nausea,0 No. (%)
same,Serious TEAE: Nephrolithiasis,0 No. (%)
same,Serious TEAE: Platelet counts decreased,0 No. (%)
same,Serious TEAE: Pleural effusion,0 No. (%)
same,Serious TEAE: Pneumonia,0 No. (%)
same,Serious TEAE: Pneumonitis,0 No. (%)
same,Serious TEAE: Prolonged QT interval,0 No. (%)
same,Serious TEAE: Pulmonary embolism,0 No. (%)
same,Serious TEAE: Pyrexia,0 No. (%)
same,Serious TEAE: Rash,0 No. (%)
same,Serious TEAE: Rectal hemorrhage,0 No. (%)
same,Serious TEAE: Respiratory failure,0 No. (%)
same,Serious TEAE: Seizure,0 No. (%)
same,Serious TEAE: Septic shock,0 No. (%)
same,Serious TEAE: Sudden cardiac arrest,0 No. (%)
same,Serious TEAE: Sudden death,0 No. (%)
same,Serious TEAE: Upper respiratory tract infection,0 No. (%)
same,Serious TEAE: Ventricular tachycardia,0 No. (%)
same,Serious TEAE: Vomiting,0 No. (%)
same,Serious TEAE: Weight loss,1 (33.3) No. (%)
same,Serious TRAE: ALT increased,0 No. (%)
same,Serious TRAE: AST increased,0 No. (%)
same,Serious TRAE: Abdominal Pain,0 No. (%)
same,Serious TRAE: Abdominal distension,0 No. (%)
same,Serious TRAE: Acute cholecystitis,0 No. (%)
same,Serious TRAE: Acute pancreatitis,0 No. (%)
same,Serious TRAE: Anal abscess,0 No. (%)
same,Serious TRAE: Any,1 (33.3) No. (%)
same,Serious TRAE: Aortic intramural hematoma,0 No. (%)
same,Serious TRAE: Arrhythmia,0 No. (%)
same,Serious TRAE: Blood bilirubin increased,0 No. (%)
same,Serious TRAE: Blood creatinine increased,0 No. (%)
same,Serious TRAE: COVID-19,0 No. (%)
same,Serious TRAE: Cardiac tamponade,0 No. (%)
same,Serious TRAE: Coronary artery atherosclerosis,0 No. (%)
same,Serious TRAE: Death,0 No. (%)
same,Serious TRAE: Diarrhea,0 No. (%)
same,Serious TRAE: Drug eruption,0 No. (%)
same,Serious TRAE: Dyspnea,0 No. (%)
same,Serious TRAE: Embolism,0 No. (%)
same,Serious TRAE: Erythema multiforme,0 No. (%)
same,Serious TRAE: Headache,0 No. (%)
same,Serious TRAE: Hemoptysis,0 No. (%)
same,Serious TRAE: Hydronephrosis,0 No. (%)
same,Serious TRAE: Hypertension,0 No. (%)
